Data as given in paper PMC2423925, “Pharmacokinetics of Octreotide in Patients With Cirrhosis and Portal Hypertension; Relationship Between the Plasma Levels of the Analogue and the Magnitude and Duration of the Reduction in Corrected Wedged Hepatic Venous Pressure” (HPB Surgery, 1998).

Legend:
[1] = Plasma octreotide level one hour after intravenous administration (radioimmunoassay); assay type: in vivo, human; conditions: 50 μg octreotide IV bolus, 13 patients with cirrhosis and portal hypertension
Excerpt: Furthermore, we also studied the relationship between the mag- nitude and duration of response of octreotide on corrected wedged hepatic venous pressure (WHVP) and the circulatinglevels ofthe analogue after intravenous administration. Subcutaneous Administration of Octreotide Six patients (4 males and 2 females), receiving 50tg octreotide s.c. twice daily to prevent recurrent varieceal hemorrhage were studied 4 weeks after commencing treatment with the analogue. These patients were participating in a randomised controlled trial and had already undergone a baseline measurement of corrected wedged hepatic venous pressure (WHVP) prior to being commenced on octreotide (50 tg.sc.bd). […] One patient had severe (Child's C), 2 moderate (Child's B) and 3 mild (Child's A) liver dys- function. Following an overnight fast, blood samples were removed immediately prior to a subcutaneous injection of 50tg octreotide and then at 2 hourly intervals for the following 12 h. The blood samples were collected in hepari- nised bottles containing Trasylol, centrifuged at 0C, the plasma snap frozen and stored at -20C for subsequent analysis of the octreo- tide levels. […] Thirteen patient with cirrhosis and portal hy- pertension admitted for a thorough investigation of the etiology and severity of their liver disease underwent measurements of their corrected wedged hepatic venous pressure (WHVP). […]

[2] = Pharmacokinetics of octreotide after subcutaneous injection (plasma radioimmunoassay); conditions: for AUC: AUC 2-12 h; for Cmax: 50 μg, Plasma octreotide levels, Peak;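 on all read-outs here: cirrhotic patients on twice-daily subcutaneous dosing for prevention of recurrent variceal bleeding, sampled four weeks into treatment, octreotide measured in plasma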
Excerpt: Furthermore, we also studied the relationship between the mag- nitude and duration of response of octreotide on corrected wedged hepatic venous pressure (WHVP) and the circulatinglevels ofthe analogue after intravenous administration. Subcutaneous Administration of Octreotide Six patients (4 males and 2 females), receiving 50tg octreotide s.c. twice daily to prevent recurrent varieceal hemorrhage were studied 4 weeks after commencing treatment with the analogue. These patients were participating in a randomised controlled trial and had already undergone a baseline measurement of corrected wedged hepatic venous pressure (WHVP) prior to being commenced on octreotide (50 tg.sc.bd). […] One patient had severe (Child's C), 2 moderate (Child's B) and 3 mild (Child's A) liver dys- function. Following an overnight fast, blood samples were removed immediately prior to a subcutaneous injection of 50tg octreotide and then at 2 hourly intervals for the following 12 h. The blood samples were collected in hepari- nised bottles containing Trasylol, centrifuged at 0C, the plasma snap frozen and stored at -20C for subsequent analysis of the octreo- tide levels. […] Thirteen patient with cirrhosis and portal hy- pertension admitted for a thorough investigation of the etiology and severity of their liver disease underwent measurements of their corrected wedged hepatic venous pressure (WHVP). […] A 7F occlusion ballon Sidewinder catheter (Cordis Corporation, Miami, USA) was guided into a hepatic vein under fluoroscopic control. […] The right femoral artery was cannu- lated with a 7F Cordis cannula via a 8F Cordis introducer.

[3] = normal healthy volunteers; cited from earlier work
[4] = Patient 1, Child's grade A, 50 μg s.c.
[5] = Patient 2, Child's grade A, 50 μg s.c.
[6] = Patient 3, Child's grade A, 50 μg s.c.
[7] = Patient 4, Child's grade B, 50 μg s.c.
[8] = Patient 5, Child's grade B, 50 μg s.c.
[9] = Patient 6, Child's grade C, 50 μg s.c.

For C[C@@H](O)[C@@H]1NC(=O)[C@H](CCCCN)NC(=O)[C@@H](Cc2c[nH]c3ccccc23)NC(=O)[C@H](Cc2ccccc2)NC(=O)[C@@H](NC(=O)[C@H](N)Cc2ccccc2)CSSC[C@@H](C(=O)N[C@H](CO)[C@@H](C)O)NC1=O [octreotide], the “plasma octreotide level 1 h after administration” value [1] was 1944 pg/mL, the level at 1 h ([1]; human, plasma, 50 ug) was 1.94 ± 0.226 ng/mL and the “clearance, overall” value ([2]; 50 μg s.c., six patients, mean ± SD) was 3.04 L/h. It also gave a Clearance [2, 4] of 4.775 L/h, a K [2, 4] of 0.271 h⁻¹ and a Volume of distribution [2, 4] of 17.62 L. For the same molecule, the Clearance [2, 5] was 2.892 L/h, the K [2, 5] was 0.251 h⁻¹ and the Volume of distribution [2, 5] was 11.51 L. For the same molecule, the Clearance [2, 6] was 3.021 L/h, the K [2, 6] was 0.288 h⁻¹ and the Volume of distribution [2, 6] was 10.47 L. It also gave a Clearance [2, 7] of 2.765 L/h, a K [2, 7] of 0.172 h⁻¹ and a Volume of distribution [2, 7] of 16.07 L. For the same molecule, the Clearance [2, 8] was 2.704 L/h, the K [2, 8] was 0.172 h⁻¹ and the Volume of distribution [2, 8] was 15.77 L. The Clearance [2, 9] was 2.101 L/h, the K [2, 9] was 0.142 h⁻¹ and the Volume of distribution [2, 9] was 14.82 L. For the same molecule, the Tmax ([2]; both, human, plasma, sc, 50 ug) was 2 h, the half-life ([2]; both, human, plasma, sc, 50 ug, circulating (plasma) half life, range, 50 μg octreotide s.c., range over 6 patients with cirrhosis and portal hypertension) was 2.4 to 4.79 h and the half-life ([2]; both, human, plasma, sc, 50 ug, plasma half-life, overall, 50 μg s.c., six patients, mean ± SD) was 3.44 h. For the same molecule, the AUC ([2]; human, plasma, sc, 50 ug, Patient 1, Child's grade A, 50 μg s.c.) was 10.5 ng·h/mL, the AUC ([2]; human, plasma, sc, 50 ug, Patient 2, Child's grade A, 50 μg s.c.) was 17.2 ng·h/mL and the AUC ([2]; human, plasma, sc, 50 ug, Patient 3, Child's grade A, 50 μg s.c.) was 16.6 ng·h/mL. It also gave an AUC ([2]; human, plasma, sc, 50 ug, Patient 4, Child's grade B, 50 μg s.c.) of 18.1 ng·h/mL, an AUC ([2]; human, plasma, sc, 50 ug, Patient 5, Child's grade B, 50 μg s.c.) of 18.5 ng·h/mL and an AUC ([2]; human, plasma, sc, 50 ug, Patient 6, Child's grade C, 50 μg s.c.) of 23.8 ng·h/mL. The Cmax ([2]; human, plasma, sc, Patient 1, Child's grade A, 50 μg s.c.) was 2.59 ng/mL, the Cmax ([2]; human, plasma, sc, Patient 2, Child's grade A, 50 μg s.c.) was 2.2 ng/mL and the Cmax ([2]; human, plasma, sc, Patient 3, Child's grade A, 50 μg s.c.) was 2.09 ng/mL. For the same molecule, the Cmax ([2]; human, plasma, sc, Patient 4, Child's grade B, 50 μg s.c.) was 2.94 ng/mL, the Cmax ([2]; human, plasma, sc, Patient 5, Child's grade B, 50 μg s.c.) was 3.28 ng/mL and the Cmax ([2]; human, plasma, sc, Patient 6, Child's grade C, 50 μg s.c.) was 3.51 ng/mL. The half-life ([2]; human, plasma, sc, 50 ug, t1/2, Patient 1, Child's grade A, 50 μg s.c.) was 2.4 h, the half-life ([2]; human, plasma, sc, 50 ug, t1/2, Patient 2, Child's grade A, 50 μg s.c.) was 2.76 h and the half-life ([2]; human, plasma, sc, 50 ug, t1/2, Patient 3, Child's grade A, 50 μg s.c.) was 2.56 h. It also gave a half-life ([2]; human, plasma, sc, 50 ug, t1/2, Patient 4, Child's grade B, 50 μg s.c.) of 4.03 h, a half-life ([2]; human, plasma, sc, 50 ug, t1/2, Patient 5, Child's grade B, 50 μg s.c.) of 4.04 h and a half-life ([2]; human, plasma, sc, 50 ug, t1/2, Patient 6, Child's grade C, 50 μg s.c.) of 4.89 h. The hepatic excretion [3] was 30-40%.
